Patent publication US11446253B2, “Ionic liquids for internal delivery” (priority 2017, dated 2022)
≈ marks a conversion by molar mass, not a printed value. Where “and” joins values, the source holds several entries; their conditions need not be identical. Equal values may be shown once. Entries after “also recorded” stand apart in the source; their conditions may differ. Read-outs that look alike come from different tables or passages of the source. Values belong to the compound of their own block, whether it stands above or below them.

Experiments:
[1] = system: 4T1 cells; assay: 4T1 cell viability, calcein-AM assay; type: cell-based; details: drug solubilized in CAGE (1:1) vs DMSO
Protocol: In vitro anticancer efficacy of drug-loaded liposomes was determined using calcein-AM cell viability assay (Life Technologies). 4T1 cells were seeded in a 96-well cell culture plate at a density of 11,000 cells per well or 1,000 cells per well in a total volume of 100 μL media and allowed to adhere overnight. […] After incubation with drug, media was aspirated and replaced with 1 μM calcein-AM in PBS for 30 minutes at room temperature. Fluorescence intensity of intracellularly hydrolyzed calcein-AM was measured using excitation and emission wavelengths of 490 nm and 520 nm. Fractional cell inhibition was calculated by subtracting fluorescence of live cells in experimental wells from those of untreated cells and normalizing against untreated cells.

[2] = Solubility of hydrophobic drugs in CAGE; details: organic solvent or mixture
[3] = system: rats; details: cited from earlier work
[4] = physchem; details: organic solvent or mixture
[5] = system: Caco-2 cells; assay: Tight junction integrity (TEER) in Caco-2 cells; type: cell-based, human
Protocol: […] Furthermore, TEER was measured at every time point when aliquots were withdrawn from the transwells and plotted as % change from initial value vs time.
TEER values were recorded for each insert. […] TEER was plotted as % change from initial value vs time.

[6] = system: Caco-2 monolayers; assay: FITC-insulin transport across Caco-2 monolayers; type: cell-based, human
Protocol: TEER was measured on a regular basis and when it reached above 200 ohms·cm^2, indicating sufficient tight junction integrity between cells, transport study was performed.
(§1) After the end of study at 5 h, the FITC-insulin concentration in the aliquots were measured using a plate reader (Tecan, Infinite M1000, Mannedorf, Switzerland) at 495/520 nm excitation/emission wavelengths and plotted as % FITC-insulin transport vs time. Furthermore, TEER was measured at every time point when aliquots were withdrawn from the transwells and plotted as % change from initial value vs time.
TEER was measured on a regular basis and when it reached above 200 ohms. cm2, indicating sufficient tight junction integrity between cells, transport study was performed.
as §1, with “[…]” for “% change from initial value”

[7] = system: non-diabetic male Wistar rats; assay: Blood glucose lowering after intrajejunal administration; type: in vivo, rat; details: intrajejunal controls (neat CAGE, 3 U/kg insulin-saline), 5 h
Protocol: Before the start of the study, the rats were anesthetized, abdominal hair clipped and the area prepped for surgery using 70% ethanol and betadine. An incision was made in the abdomen to expose the intestine. […] Each formulation was tested in 6 rats with the exception of saline which was tested in only 3 rats. Thereafter, intestinal section was placed back into the abdomen and the muscle and skin sutured. Blood glucose was determined using a commercial glucose meter in the beginning and at every 0.5 h till the end of study at 5 h. The animals remained anesthetized throughout the study, at the end of which they were euthanized and the intestinal section around the injection site was removed for further histological examination to determine toxicity, if any. […] The results were plotted as % change in blood glucose levels with respect to initial reading at t=0 vs time.
Before the start of the study, the rats were anesthetized, abdominal hair clipped, and the surgery area was prepped using 70% ethanol and betadine. An incision was made in the abdomen to expose the intestine. […] The time zero blood glucose was taken after the intestine was exposed i.e. immediately prior to the injections. Each formulation was tested in 6 rats with the exception of saline which was tested in only 3 rats. Thereafter, intestinal section was placed back into the abdomen and the muscle and skin sutured. Blood glucose was determined using a commercial glucose meter at the beginning and at every 0.5 h till the end of study at 5 h. Loss in body temperature in the animals during anesthesia was prevented by placing the animals on temperature controlled warming pads prior to surgery followed by additional towel cover after surgery. The animals remained anesthetized throughout the study and were euthanized after 5 h. At the end of study at 5 h, the intestinal section around the injection site was removed for further histological examination to determine toxicity, if any. […] The results were plotted as % change in blood glucose levels with respect to initial reading vs time. In addition, the saline group was considered as fasting control and graphs were plotted after subtracting blood glucose levels of the saline group.

[8] = system: non-diabetic male Wistar rats; assay: Blood glucose lowering after oral administration in enterically coated capsules; type: in vivo, rat; details: oral controls, 12 h
Protocol: (§2) For the oral efficacy study, adult non-diabetic male Wistar rats were fasted overnight but given free access to water. On the next day, the capsules were administered to the rats using an oral gavage followed by subcutaneous administration of 5 mg/kg metoclopramide HCl to promote gastric emptying. Blood glucose was thereafter measured using a commercial glucose meter and subsequently every hour till 12 h. Rats were fasted throughout the period of study. […] In addition, the efficacy of subcutaneously injected 2 U/kg insulin-saline was also evaluated. […] The results were plotted as percent change in blood glucose level vs time.
as §2, with “To determine the efficacy of insulin-CAGE administered through the oral route, elongated size 9 capsules were used. […] Following this, the capsules were enterically coated three times with 12.5% w/v Eudragit® L-100 dissolved in isopropanol. For” for “For”, “Next” for “On the next”, “was” for “was also”, “time. […] After 12 h of study, rats were euthanized, and small intestinal sections were collected for tissue histology.” for “time.”

[9] = system: Caco-2 cells; details: Caco-2, 12-48 h incubation
Protocol: Control wells were filled with media only. […] The plates were wrapped in foil and shaken for 20 min, then absorbance was read at 570 nm using a microplate reader (M220 Infinite Pro, Tecan Group Ltd, Morrisville, N.Y.). Absorbance readings were normalized using the non-treated cell viability values.

[10] = FITC labeled dextran, neat CAGE sample
Protocol: These experiments were done using skin as a model tissue. […] 50 ul of each sample was injected intradermally into one side of a 5 cm×5 cm square of porcine skin. […] The samples were incubated at RT for 2 h (while we were getting trained) and then imaged. The samples were incubated for an additional 2 h at 37° C. and imaged again. 2 h samples had different exposures (we were still learning the system). The 4 h samples were all taken at the same exposure. The size of the fluorescing area for each sample and time point was estimated by drawing a shape around the area manually using ImageJ™

[11] = system: Caco-2 monolayers; details: for enhancement of 4 kDa FITC-dextran transport: various time points
Protocol: (§3) Before the start of the experiment, the medium in the transwells was replaced with DMEM devoid of phenol red, FBS and P/S in both the apical (200 μL) and basolateral side (600 μL) and the cells were incubated for 30 minutes. […] This was repeated at 1, 2, 3, 4 and 5 h. During the study, the transwell plates were placed inside an incubator at 37° C., 5% CO2 on a shaker rotating at 100 rpm and only taken out to remove aliquots at each time point. After the end of study at 5 h, fluorescence in the aliquots with FTIC-dextran concentrations were measured using a plate reader (BioTek Synergy NEO HTS™ microplate reader (Winooski, Vt., USA) at 485/530, 495/520 and 468/568 nm excitation/emission wavelengths, respectively. Calibration solutions for each test article were prepared and analyzed using fluorescence readings for FITC-dextran which was used to plot of basolateral chamber concentration vs time plots.

[12] = system: Caco-2 monolayers
Protocol: For transport experiments in transwells, a 3-day rapid Caco-2 growth system was used. Cells were placed in Corning® basal seeding medium (BSM) supplemented with MITO serum+ extender and seeded at density of 400,000 cells/mL on Millicell® PCF inserts placed inside 24-well plates. 500 μL of cells containing medium was placed in apical side while 1000 μL of cell free BSM was put in the basolateral side as per manufacturer recommendation. After 24 h of incubation at 37° C., 5% CO2, the medium was replaced with same volume of enterocyte differentiation medium supplemented with MITO serum+ extender for another 2-4 days.
as §3, with “During the study, the transwell plates were placed inside an incubator at 37° C., 5% CO2 on a shaker rotating at 100 rpm and only taken out to remove aliquots at each time point.” left out, “LY and coumarin-6” for “FTIC-dextran”, “LY and coumarin-6” for “FITC-dextran”

[13] = system: Caco-2 cells; assay: GFP plasmid transfection of Caco-2 cells; type: cell-based, human; details: Caco-2, CAGE in lieu of lipofectamine, P3000 0.09%
Protocol: Caco-2 cells were seeded at 80% confluency in either 96-well half area or 24-well tissue culture treated plates a day prior to adding transfection reagents. For lipofectamine transfection studies, Lipofectamine 3000 reagent (final concs. 0.07% or 0.13%) was prepared in Opti-Mem Medium and mixed. A master mix of plasmid DNA was prepared separately by diluting the GFP plasmid (50 ng/well for 96-well half area plate or 250 ng/well for 24-well plate) in Opti-Mem Medium with P3000 enhancer reagent (final conc. 0.09% v/v). The master mix of plasmid DNA was added to tubes of the diluted lipofectamine 3000 reagent at a 1:1 ratio. The mixture was allowed to incubate for 20 minutes at room temperature to allow for the plasmid to become incorporated into the cationic lipofectamine. The DNA-lipid complex mixture was then added directly to cells in complete cell culture media at final concs. of 0.07% or 0.13%. Total volume of 96-well half area plate was 100 uL and for the 24-well plate 500 uL. This transfection mixture was removed after 3 days of incubation, washed with DPBS, and replaced with complete DMEM cell culture media.
If P3000 enhancer reagent was used, the final conc. was maintained at the same 0.09%. The transfection mixtures were removed after 1 day or 3 days, washed with DPBS, and replaced with complete DMEM cell culture media.

[14] = system: non-diabetic male Wistar rats; assay: In vivo bioactivity of insulin isolated from CAGE after storage; set-up: species or system rat; details: for blood glucose, % of initial level: 1 U/kg subcutaneous
From the text: Prior to insulin injections, rats were fasted overnight but given free access to water and fasting continued throughout the study to eliminate variability in blood glucose due to food consumption. The results were plotted as % change in blood glucose compared to initial level vs time.

[15] = in vivo; cited from earlier work

Compound: CC[C@@]1(O)C(=O)OCc2c1cc1n(c2=O)Cc2cc3ccccc3nc2-1 [Camptothecin]
- effect on 4T1 cells [1]: just as effective as those solubilized in DMSO
- solubility [2]: 54 mg/mL (≈ 155 mM)

Compound: C[N+](C)(C)CCO [Choline]
- oral LD50 ([3]; oral): 3,400 mg/kg

- solubility [4]: 200 mg/mL (≈ 234 mM)
Compound: CC(=O)O[C@H]1C(=O)[C@@]2(C)[C@H]([C@H](OC(=O)c3ccccc3)[C@]3(O)C[C@H](OC(=O)[C@H](O)[C@@H](NC(=O)c4ccccc4)c4ccccc4)C(C)=C1C3(C)C)[C@]1(OC(C)=O)CO[C@@H]1C[C@@H]2O [Paclitaxel]
- effect on 4T1 cells [1]: just as effective as those solubilized in DMSO

Compound: CC(C)=CCC/C(C)=C/C(=O)O [geranic acid]
- oral LD50 ([3]; rat, in vivo, po): 3,700 mg/kg

Compound: CCCCCCCCCC(=O)[O-].[Na+] [sodium caprate, reference compound]
- tight junction integrity (TEER), % of initial levels ([5]; 10 mM sodium caprate, end of study at 24 h): 36%

Compound: Choline And GEranate [CAGE]
- enhancement of FITC-insulin transport vs no CAGE ([6]; 10 mM CAGE (Example 9)): 1.5-2 fold
- enhancement of insulin transport compared to insulin in saline ([6]; 10 mM CAGE, Caco-2, 5 h study): 3-4 fold
- higher transport of insulin compared to insulin-saline treated cells ([6]; 10 mM CAGE, all time points over 5 h): at least 3 times
- enhancement of FITC-insulin transport vs no CAGE ([6]; 25 mM CAGE): 1.5-2 fold
- enhancement of FITC-insulin transport vs no CAGE ([6]; 50 mM CAGE, all time points): > 10 fold
- TEER drop ([5]; 10 mM CAGE, 1 h): 29%
- TEER decrease ([5]; 25 mM CAGE): 40-50% and ~40%
- TEER decrease ([5]; 50 mM CAGE): 40-50% and ~50%
- TEER recovery, % of initial level ([5]; 50 mM CAGE, 24 h): 58%
- decrease in blood glucose of control groups, % of initial level [7]: about 25%
- decrease in blood glucose of formulation controls [8]: about 25%
- IC50 [9]: 10 mM
- area increase between 2 h and 4 h [10]: about 2 ×
- enhancement of 4 kDa FITC-dextran transport ([11]; 25 mM CAGE): 2-6 fold
- enhancement of 4 kDa FITC-dextran transport ([11]; 50 mM CAGE): 6-13 fold
- enhancement of 4 kDa FITC-dextran transport reached ([11]; concentration-dependent, highest): 13 fold
- enhancement of Lucifer yellow transport ([12]; 10 mM CAGE): ~2 fold
- enhancement of Lucifer yellow transport ([12]; 50 mM CAGE, various time points): 7-10 fold
- GFP plasmid transfection [13]: can deliver DNA into cells

Compound: insulin isolated from CAGE: insulin stored in CAGE, isolated by centrifugation and washing, re-suspended in sterile saline
- bioactivity after storage ([14]; stored at 4° C. with CAGE, 4 months): did not show any loss in bioactivity; also recorded: retained its bioactivity
- blood glucose, % of initial level ([14]; stored in CAGE at RT for 3 months, 1 h): 61.57±2.38% and 62±2%
- blood glucose, % of initial level ([14]; stored in CAGE at RT for 3 months, 2 h): 61.98±3.19% and 62±3%
- drop in blood glucose ([14]; stored in CAGE at RT for 3 months, 1 and 2 h after injection): 38%

Compound: orally administered insulin solution: literature comparator of Ansari et al.
- oral bioavailability [15]: 1.7%
